The source of these data is ChEMBL document CHEMBL4483862, “Open-source discovery of chemical leads for next-generation chemoprotective antimalarials” (2018).

The assay concerns Plasmodium berghei. Description: Luciferase/luciferin-expressing antifolate-resistant parasites were used to infect a culture of HepG2 cells that were pre-incubated with compounds. Infected hepatocytes emit light due to the luciferase reaction. Assay results are presented as the percent inhibition of light emission compared to control. […]. It is filed as functional. The conditions noted are these: sporozoite; for IC90: read-out: LUCIFERASE INFECTION ASSAY - IC90.

The term IC50 denotes the concentration that inhibits the measured activity by half. One may read the IC90 as the concentration at which the effect reaches the 90% level. Take `CCOC(=O)c1c(-c2ccccc2)oc2ccc(OCC(O)CNCCN(C)C)cc12` (configuration not stated): the IC90 was greater than 10 µM. For the setting “PBLUC_HILL_SLOPE 9.38, PBLUC_R_SQUARED 0.614, read-out: LUCIFERASE INFECTION ASSAY - IC50”, the IC50 stood at 8.91 µM.

For the compound `c1ccc(-c2cc(N3CCCCC3)c3ccccc3n2)nc1`, the IC90 was greater than 11.4 µM. For the same compound, for the setting “PBLUC_HILL_SLOPE 9.83, PBLUC_R_SQUARED 0.0291, read-out: LUCIFERASE INFECTION ASSAY - IC50”, the IC50 was determined as 10.3 µM.

Turning to `O=C(Nc1nc2ccccc2[nH]1)c1cc(-c2ccccn2)nc2ccccc12`, the IC90 came out at 9.7 µM. Moreover, where the note is “PBLUC_HILL_SLOPE 9.86, PBLUC_R_SQUARED 0.717, read-out: LUCIFERASE INFECTION ASSAY - IC50”, the half-maximal inhibitory concentration (IC50) was 7.76 µM.

On to `Cc1cc(C(=O)Cn2cnc3ccccc32)c(C)n1-c1ccccn1`, for which the IC90 is greater than 10 µM. Besides, for the setting “PBLUC_HILL_SLOPE 9.42, PBLUC_R_SQUARED 0.321, read-out: LUCIFERASE INFECTION ASSAY - IC50”, the IC50 is 9.29 µM.

As for `Cc1oc(-c2cccs2)nc1CC(=O)NNC(=O)CC12CC3CC(CC(C3)C1)C2`, the IC90 is 4.57 µM. Moreover, where the note is “PBLUC_HILL_SLOPE 9.4, PBLUC_R_SQUARED 0.433, read-out: LUCIFERASE INFECTION ASSAY - IC50”, the IC50 was determined as 3.62 µM.

On to `O=C(NC1CC1)c1ccc(CN(Cc2ccco2)Cc2nc(-c3ccc(F)cc3)no2)cc1`, for which the IC90 amounted to 0.482 µM. In addition, the IC50 (PBLUC_HILL_SLOPE 9.42, PBLUC_R_SQUARED 0.908, read-out: LUCIFERASE INFECTION ASSAY - IC50) worked out at 0.382 µM.

In the case of `COc1ccc(OC)c(CN2CCN(c3nn4cc(-c5ccccc5)nc4s3)CC2)c1`, the IC90 is greater than 10 µM. Moreover, the IC50 (PBLUC_HILL_SLOPE 9.65, 2.13, PBLUC_R_SQUARED 0.339, 0.240, read-out: LUCIFERASE INFECTION ASSAY - IC50) was 6.69 µM.

On to `Fc1cccc(-c2cnc3cnc(-c4ccc(CNc5ccccc5)cc4)cn23)c1`, for which the IC90 was greater than 8.37 µM. The IC50 (PBLUC_HILL_SLOPE 9.4, PBLUC_R_SQUARED 0.212, read-out: LUCIFERASE INFECTION ASSAY - IC50) is greater than 8.37 µM.

As to `OCc1ccc(-c2cn3c(-c4cccc(OC(F)(F)F)c4)cnc3cn2)cc1`, the IC90 was found to be 4.85 µM. Further, the IC50 (PBLUC_HILL_SLOPE 9.63, PBLUC_R_SQUARED 0.631, read-out: LUCIFERASE INFECTION ASSAY - IC50) came out at 3.86 µM.

Regarding `N=C1NC(=Nc2ccc(Cl)c(Cl)c2)c2ccccc21`, the IC90 is greater than 10 µM. In addition, the half-inhibitory concentration (IC50) (PBLUC_HILL_SLOPE 9.86, PBLUC_R_SQUARED 0.113, read-out: LUCIFERASE INFECTION ASSAY - IC50) came out at 9.53 µM.

`N#CC1=C2Sc3ccccc3N2C(O)(C(F)(F)F)C(C(=O)C(F)(F)F)=C1` (configuration not stated): the IC90 was 4.76 µM. In addition, the IC50 (PBLUC_HILL_SLOPE 9.79, 8.06, PBLUC_R_SQUARED 0.178, 0.335, read-out: LUCIFERASE INFECTION ASSAY - IC50) came out at 3.71 µM.

In the case of `CCCCCCCCc1nnc(NC(=O)c2nccnc2N)s1`, the IC90 stood at 4.58 µM. Further, the IC50 (PBLUC_HILL_SLOPE 9.5, PBLUC_R_SQUARED 0.438, read-out: LUCIFERASE INFECTION ASSAY - IC50) turned out to be 3.63 µM.

For the compound `COc1ccc(-c2cnc3cnc(-c4cccc(NS(C)(=O)=O)c4)cn23)cc1`, the IC90 was found to be 3.7 µM. The IC50 (PBLUC_HILL_SLOPE 9.6, PBLUC_R_SQUARED 0.49, read-out: LUCIFERASE INFECTION ASSAY - IC50) was 2.94 µM.

Regarding `Cc1c(-c2ccc(Cl)c(S(=O)(=O)N(C)c3ccccc3)c2)oc2ccc(F)cc2c1=O`, the IC90 came to 4.45 µM. Besides, the IC50 (PBLUC_HILL_SLOPE 9.42, PBLUC_R_SQUARED 0.55, read-out: LUCIFERASE INFECTION ASSAY - IC50) was determined as 3.52 µM.

`CNc1snc(C)c1C(=O)NCC(c1cccs1)c1c[nH]c2ccccc12` (configuration not stated): the IC90 is 9.68 µM. Further, the IC50 (PBLUC_HILL_SLOPE 9.74, PBLUC_R_SQUARED 0.4, read-out: LUCIFERASE INFECTION ASSAY - IC50) was 7.72 µM.

As to `CC1CCN(Cc2nc(SC3CCCC3)c3c4c(sc3n2)CCC4)CC1`, the IC90 is greater than 10 µM. Also, the IC50 (PBLUC_HILL_SLOPE 9.85, PBLUC_R_SQUARED 0.167, read-out: LUCIFERASE INFECTION ASSAY - IC50) was found to be 9.59 µM.

Regarding `COc1ccc(-c2csc3nc(-c4cccnc4)nc(NCCN4CCOCC4)c23)cc1OC`, the IC90 is greater than 10 µM. Further, under “PBLUC_HILL_SLOPE 9.41, PBLUC_R_SQUARED 0.036, read-out: LUCIFERASE INFECTION ASSAY - IC50”, the IC50 came to 9.3 µM.

For the compound `O=C(NCc1ccc(F)c(Cl)c1)Nc1csc([N+](=O)[O-])c1`, the concentration for an effect of 90% (IC90) is greater than 10 µM. The IC50 (PBLUC_HILL_SLOPE 9.52, PBLUC_R_SQUARED 0.452, read-out: LUCIFERASE INFECTION ASSAY - IC50) amounted to 8.04 µM.

With `Cc1sc2nc(-c3cccs3)nc(N3CCCN(CC(=O)NC(C)C)CC3)c2c1C`, the IC90 was greater than 10 µM. For the same compound, the IC50 (PBLUC_HILL_SLOPE 9.52, PBLUC_R_SQUARED 0.368, read-out: LUCIFERASE INFECTION ASSAY - IC50) turned out to be 8.07 µM.

In the case of `O=C(CCCNC(=O)c1ccsc1)NNC(=O)c1ccccc1O`, the IC90 is greater than 10 µM. Besides, the IC50 (PBLUC_HILL_SLOPE 9.95, PBLUC_R_SQUARED 0.0276, read-out: LUCIFERASE INFECTION ASSAY - IC50) is greater than 10 µM.

Regarding `O=C1OC(C=NC23CC4CC(CC(C4)C2)C3)c2ccccc21` (configuration not stated), the IC90 was greater than 11.2 µM. Further, the IC50 (PBLUC_HILL_SLOPE 9.77, PBLUC_R_SQUARED 0.255, read-out: LUCIFERASE INFECTION ASSAY - IC50) came out at 9.81 µM.

For the compound `Cc1ccc(Sc2ccc(NC(=S)NCC3CCCO3)cc2)c(C)c1` (configuration not stated), the IC90 was greater than 10 µM. In addition, the IC50 (PBLUC_HILL_SLOPE 9.48, PBLUC_R_SQUARED 0.239, read-out: LUCIFERASE INFECTION ASSAY - IC50) amounted to 8.41 µM.

As for `CCN(c1ccccc1)S(=O)(=O)c1ccc(OCC(=O)N(C)Cc2nc3ccccc3s2)cc1`, the IC90 is greater than 10 µM. Moreover, for the setting “PBLUC_HILL_SLOPE 9.53, PBLUC_R_SQUARED 0.61, read-out: LUCIFERASE INFECTION ASSAY - IC50”, the IC50 turned out to be 9.27 µM.

For `O=C(c1cc2c(=O)n3ccccc3nc2s1)N(c1ccccn1)C1CCCCC1`, the IC90 is greater than 10 µM. The IC50 (PBLUC_HILL_SLOPE 9.6, PBLUC_R_SQUARED 0.179, read-out: LUCIFERASE INFECTION ASSAY - IC50) came out at 9.45 µM.

As to `COc1ccc(-c2cnc3cnc(-c4ccc(C(=O)NC5CC5)cc4)cn23)cc1`, the IC90 came out at 3.59 µM. Moreover, the IC50 (PBLUC_HILL_SLOPE 9.57, PBLUC_R_SQUARED 0.525, read-out: LUCIFERASE INFECTION ASSAY - IC50) stood at 2.85 µM.

Turning to `CCCn1nc(C(=O)Nc2cccc(-c3nc4ccccc4[nH]3)c2)c2ccccc2c1=O`, the IC90 came to 4.7 µM. In addition, the IC50 (PBLUC_HILL_SLOPE 9.6, PBLUC_R_SQUARED 0.205, read-out: LUCIFERASE INFECTION ASSAY - IC50) was found to be 3.74 µM.

Consider `CC(C)(C)c1ccccc1NC(=O)Nc1nc(C(N)Cc2ccc(C(F)(F)F)cc2)cs1` (configuration not stated), for which the IC90 worked out at 3.44 µM. Further, the IC50 (PBLUC_HILL_SLOPE 9.7, PBLUC_R_SQUARED 0.271, read-out: LUCIFERASE INFECTION ASSAY - IC50) amounted to 2.74 µM.

`CCc1cc2c(COC(=O)c3cc(C(C)=O)cn3C)cc(=O)oc2cc1O`: the IC90 was greater than 10 µM. Also, where the note is “PBLUC_HILL_SLOPE 9.37, PBLUC_R_SQUARED 0.164, read-out: LUCIFERASE INFECTION ASSAY - IC50”, the IC50 came out at 8.69 µM.

With `Cc1ccc(Cn2c(NCc3cccs3)nc3ccccc32)cc1`, the IC90 was greater than 9.9 µM. Besides, under “PBLUC_HILL_SLOPE 9.45, PBLUC_R_SQUARED 0.348, read-out: LUCIFERASE INFECTION ASSAY - IC50”, the half-maximal inhibitory concentration (IC50) was found to be 8.16 µM.

Take `CC(C)(O)C#Cc1ccc(/C=N/Nc2ccc(I)cc2)cc1`: the IC90 is greater than 8.16 µM. The IC50 (PBLUC_HILL_SLOPE 9.96, PBLUC_R_SQUARED 0.415, read-out: LUCIFERASE INFECTION ASSAY - IC50) is 7.16 µM.

As to `Cc1cnc(NC(=O)Cc2ccc3c(c2)CCC(C)(C)O3)s1`, the IC90 was determined as 4.6 µM. The IC50 (PBLUC_HILL_SLOPE 9.94, PBLUC_R_SQUARED 0.592, read-out: LUCIFERASE INFECTION ASSAY - IC50) came to 3.68 µM.

Take `Cc1ccc(C(=O)Nc2nc3cc4c(cc3s2)OCCO4)s1`: the IC90 was greater than 10 µM. Under “PBLUC_HILL_SLOPE 9.57, PBLUC_R_SQUARED 0.436, read-out: LUCIFERASE INFECTION ASSAY - IC50”, the IC50 is 8.59 µM.

As for `Cn1nc(SCC(=O)NN)c(=O)n(C)c1=O`, the 90% effect concentration (IC90) was 3.54 µM. Moreover, the IC50 (PBLUC_HILL_SLOPE 9.87, PBLUC_R_SQUARED 0.424, read-out: LUCIFERASE INFECTION ASSAY - IC50) worked out at 2.84 µM.

Take `CNC(=O)c1ccc(CN(Cc2ccco2)Cc2cc3ccc(C)c(C)c3nc2Cl)cc1`: the IC90 worked out at 1.48 µM. Also, for the setting “PBLUC_HILL_SLOPE 9.58, PBLUC_R_SQUARED 0.657, read-out: LUCIFERASE INFECTION ASSAY - IC50”, the IC50 came out at 0.741 µM.

For the compound `CC(=O)NC(C)CCc1ccc(-c2csc(-c3ccc(NC(=O)C4CC4)cc3)n2)cc1` (configuration not stated), the IC90 stood at 0.146 µM. In addition, the IC50 (PBLUC_HILL_SLOPE 9.6, PBLUC_R_SQUARED 0.721, read-out: LUCIFERASE INFECTION ASSAY - IC50) is 0.116 µM.

As to `Cn1c(Sc2ncnc3sccc23)nc2ccccc21`, the IC90 is 5.38 µM. The IC50 (PBLUC_HILL_SLOPE 9.4, PBLUC_R_SQUARED 0.756, read-out: LUCIFERASE INFECTION ASSAY - IC50) was found to be 4.26 µM.
